Where “and” joins values, the source holds several entries; their conditions need not be identical. Identical values can stand only once. Counter-ions that a name gives are not always drawn.
Columns and labels:
[1] = tested on: dopamine transporter protein over the norepinephrine transporter protein; conditions: selectivity for dopamine transporter protein over norepinephrine transporter protein; cited from earlier work

Compound | melting point | DAT/NET Ki ratio [1]
CN1Cc2c(CO)cccc2C(c2ccccc2)C1 (stereo not drawn) | 144 to 146 °C | –
Cc1ccc2c(c1)CN(C)CC2c1ccc(F)c(C)c1 (stereo not drawn) | 174 to 175 °C | –
COc1c(C)ccc2c1CN(C)CC2c1ccccc1 (stereo not drawn) | 130 to 131 °C | –
Cc1c(F)ccc2c1CN(C)CC2c1ccccc1 (stereo not drawn) | 185 to 186 °C | –
CN1Cc2cc(OC(F)(F)F)ccc2C(c2ccccc2)C1 (stereo not drawn) | 150 to 151 °C (dec.) | –
CN1Cc2ccccc2C(c2cc(F)cc(F)c2)C1 (stereo not drawn) (as salt: HCl) | 230 to 233 °C and 230 to 235 °C | –
CN1Cc2cc(OCc3ccccc3)ccc2C(c2ccccc2)C1 (stereo not drawn) | 155 to 156 °C | –
CN1Cc2cc(CO)ccc2C(c2ccccc2)C1 (stereo not drawn) (as salt: HCl) | 237 to 240 °C (dec.) | –
Cc1cc(F)c2c(c1)C(C)N(C)C(F)C2c1ccccc1 (stereo not drawn) (as salt: HCl) | 194 to 197 °C (dec.) | –
CN1Cc2cc(Oc3ccccc3)ccc2C(c2ccccc2)C1 (stereo not drawn) | 175 to 176 °C (dec.) | –
CNCc1cccc2c1CN(C)CC2c1ccccc1 (stereo not drawn) | 278 to 282 °C | –
Cc1ccc2c(c1)C(C)N(C)CC2c1ccccc1 (stereo not drawn) | 87 to 89 °C | –
FCc1ccc2c(c1CF)CN(CF)CC2c1ccccc1 (stereo not drawn) | 108 to 113 °C | –
CNCc1ccc2c(c1F)CN(C)CC2c1ccccc1 (stereo not drawn) (as salt: HCl) | 185 to 205 °C | –
Cc1ccc2c(c1O)CN(C)CC2c1ccccc1 (stereo not drawn) | 260 to 261 °C | –
CN1Cc2cc(C(F)(F)F)ccc2C(c2ccccc2)C1 (stereo not drawn) | 257 to 275 °C | –
Cc1ccc2c(c1F)CN(C)CC2c1ccccc1 (stereo not drawn) (as salt: hydrochloride) | 215 to 216 °C | –
COC(=O)C(c1ccccc1)C1CCCCN1 (stereo not drawn) [Methylphenidate] | – | 0.1

Source: patent US20060111396A1, “4-Phenyl substituted tetrahydroisoquinolines and use thereof to block reuptake of norepinephrine, dopamine and serotonin” (AMR Technology, Inc., priority 2004, published 2006)
